{
  "source": "patent US10143691B2",
  "about": "“Pathogenic control of apoptosis” (CSIR, priority 2014, dated 2018)",
  "key": {"ATMpSer1981": {"test_system": "ATMpSer1981", "assay": "Immunofluorescence staining of activated ATM (ATMpSer1981)", "assay_type": "cell-based", "conditions": "Ghost(3) cells, Doxorubicin 500 nM, no HIV", "description": "(§1) For each experiment, Ghost(3) cells or IPSC-derived primary macrophages were infected or treated with 500 nM Doxorubicin on coverslips, fixed for 10 mins in fresh 4% paraformaldehyde at room temperature, then washed 3 times in PBS and permeabilised for 10 mins in ice-cold methanol at […]. Coverslips were washed once in PBS and incubated in blocking buffer (5% goat serum, 0.3% TritonX100 in PBS) for 60 mins at room temperature. Cells were incubated in primary antibody solution (1% BSA, 0.3% Triton X100 in PBS) overnight at 4° C. Double strand breaks were detected using rabbit polyclonal anti-phosphohistone H2A.X Ser139 (Cell Signaling). Activated ATM was detected using rabbit monoclonal anti-phosphoATM Ser1981 (Cell Signaling). The ability of p53 to regulate apoptosis was detected using rabbit polyclonal antiphosphop53 Ser46 (Cell Signaling). Viral p24 was detected using mouse monoclonal anti-HIV1p24 (AIDS Research and Reference Reagent Program, Division of AIDS, NIAID, NIH). HuR was detected using mouse monoclonal anti-HuR 3A2 (Santa Cruz Biotechnology). hnRNPK was detected using goat polyclonal anti-hnRNPK P20 (Santa Cruz Biotechnology). Coverslips were washed 3 times (5 mins each on an orbital shaker) with wash buffer (0.05% Tween20 in PBS), followed by incubation with secondary antibodies conjugated to either Atto550 or Atto565 or Atto647 for 60 mins at room temperature. […]"}, "hnRNP-K": {"test_system": "hnRNP-K", "assay": "Immunofluorescence of hnRNP-K cellular location in iPSC-derived macrophages", "assay_type": "cell-based", "conditions": "iPSC-derived (primary) macrophages, Doxorubicin-treated, no HIV", "description": "as §1"}},
  "note": "“Also recorded” adds a separate entry of the source.",
  "data": [
    {"smiles": "COc1cccc2c1C(=O)c1c(O)c3c(c(O)c1C2=O)C[C@@](O)(C(=O)CO)C[C@@H]3O[C@H]1C[C@H](N)[C@H](O)[C@H](C)O1", "note": "[Doxorubicin]", "values": [
      {"measurement": "phosphorylation of ATM at Ser1981", "setting": "ATMpSer1981", "result": "phosphorylation of both ATMpSer1981 and p53pSer46 in the nucleus within 8 hours; also recorded: Phosphorylated ATM is detected"},
      {"measurement": "cellular location of hnRNP-K", "setting": "hnRNP-K", "result": "nuclear hnRNP-K within 8 hours; also recorded: nuclear hnRNPK within 8 hours"}
    ]}
  ]
}
